In publication PMC9234671, “Molecular determinants of αVβ5 localization in flat clathrin lattices – role of αVβ5 in cell adhesion and proliferation” (Journal of Cell Science, 2022):
“Also recorded” adds a separate entry of the source.

What was measured:
talin = experiment: Peptide pulldown, talin; assay type: binding; settings: desthiobiotin tail peptide on streptavidin beads, RAC-11P lysate, 4°C, 4 h; western blot; two repeats
Description: (§1) Peptide pulldowns were carried out as previously described ([Böttcher et al., 2012]) with the mouse β1 wild-type cytoplasmic tail peptide ([…]-OH) and a scrambled peptide ([…]-OH), mouse β3 wild-type tail peptide ([…]-OH), mouse β5 wild-type tail peptide ([…]-OH), β5 Δ8aa tail peptide ([…]-OH) and scrambled peptide […].
(§2) The tail peptides were synthesized de novo with a desthiobiotin on the N-terminus, coupled to Dynabeads MyOne streptavidin C1 (10 mgml^−1, Invitrogen) and incubated with RAC-11P cell lysates (prepared with M-PER reagent, Thermo Fisher Scientific) at 4°C with rotation for 4 h. After three washes with wash buffer (M-PER diluted 1:1 with PBS), bound proteins were eluted in 2× Laemmli buffer at 95°C for 5 min and separated on an 8% SDS-PAGE gel.

kindlin-2 = experiment: Microscale thermophoresis (MST), kindlin-2; assay type: binding; settings: titration of kindlin-2 to 200 nM ATTO488-labeled cytoplasmic tail peptide; n≥3
Description: Kindlin-2 was expressed and purified as described in [Böttcher et al. (2017)]. Briefly, kindlin constructs were cloned into pCoofy17 ([Scholz et al., 2013]), which adds an N-terminal His10-Sumo tag and expressed soluble in E. coli Rosetta at 18°C overnight. After purification by immobilized-metal affinity chromatography (IMAC) in high-salt TBS buffer (20 mM Tris, pH 7.5, 500 mM NaCl, 1 mM TCEP), the Sumo tag was removed by SenP2 (obtained from MPIB Biochemistry Core Facility) digest overnight and the protein was further purified by SEC using TBS (20 mM Tris-HCl pH 7.5, 200 mM NaCl, 1 mM TCEP) containing 5% glycerol as running and storage buffer. After the final chromatography, the purity, integrity and identity of recombinant kindlin-2 and talin-1 head domain were controlled by UV spectrum, SDS-PAGE, high-resolution total mass and dynamic light scattering (DLS).
All MST measurements were performed on a Monolith NT.115 red-blue (Nanotemper, Munich, Germany) using premium-coated capillaries to reduce non-specific interaction of the proteins with the glass surface. Both interaction partners (ligand and receptor) were transferred into MST buffer (20 mM Tris-HCl pH 7.5, 200 mM sodium chloride, 1 mM TCEP and 0.05% Tween-20) to avoid artifacts derived from buffer mismatches. […] Data was analyzed using the MO Affinity Analysis Software (Nanotemper). […]

KANK-2 = experiment: Peptide pulldown, KANK-2; assay type: binding; settings: desthiobiotin tail peptide on streptavidin beads, RAC-11P lysate, 4°C, 4 h; western blot; two repeats
Description: as §1, §2

full-length human ARH = biological target: T1, full-length human ARH (Homo sapiens, UniProt Q5SW96); experiment: Microscale thermophoresis (MST), ARH; assay type: binding; settings: concentration range tested up to 50 µM for β1
T1 construct: The full-length human ARH gene was cloned into the pETNKI-6xhis-3C-LIC vector; made in house; host or cells: E. coli BL21(DE3)
T1 sequence (Q5SW96 1-308): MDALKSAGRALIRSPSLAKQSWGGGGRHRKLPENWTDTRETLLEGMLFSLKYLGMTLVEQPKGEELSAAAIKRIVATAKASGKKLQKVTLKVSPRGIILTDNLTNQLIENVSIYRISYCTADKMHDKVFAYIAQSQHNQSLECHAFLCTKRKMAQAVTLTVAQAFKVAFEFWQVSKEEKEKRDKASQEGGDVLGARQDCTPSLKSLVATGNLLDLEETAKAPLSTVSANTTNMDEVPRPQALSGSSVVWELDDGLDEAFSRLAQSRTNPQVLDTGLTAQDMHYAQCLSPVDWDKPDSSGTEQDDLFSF
Text: (§3) Fig. 2. Adaptor protein binding to integrin β subunits. (A) Colocalization of integrin chimeras fused to the promiscuous biotin ligase BirA* (green in merge) with vinculin (red; left panels) or clathrin (red; right panels) in PA-JEB/β4 keratinocytes. Actin is shown in blue. Nuclei are stained with DAPI (cyan). Scale bars: 20 μm. (B) Representative western blots of BioID assays performed using the integrin chimeras shown in A. Quantifications of ARH, Numb and talin signal intensities normalized to streptavidin-HRP levels are shown (n=3; bars show mean±s.d.). (C) Representative western blots of pulldown assays (from two repeats) using synthetic integrin β cytoplasmic domains in RAC-11P cell lysates.
The full-length human ARH gene was cloned into the pETNKI-6xhis-3C-LIC vector ([Luna-Vargas et al., 2011]) and 6xhis–ARH protein was produced in Bl21(DE3) E. coli cells. Cells were grown at 37°C until an optical density at 600 nm (OD600) of 0.6 was reached. Temperature was reduced to 30°C and protein was expressed upon induction with 0.4 mM IPTG for 3.5 h. Cells were harvested and resuspended in lysis buffer (20 mM HEPES, pH 7.5, 200 mM NaCl, 1 mM TCEP and 5 μg ml^−1 DNase). After sonication, cell debris and insoluble proteins were removed by centrifugation (21,000 g for 30 min). 6xhis–ARH was purified from the soluble fraction using nickel Sepharose beads and eluted in 20 mM HEPES, pH 7.5, 200 mM NaCl, 1 mM TCEP and 250 mM imidazole. Fractions containing 6xhi–ARH were further purified on a SEC650 size exclusion column (Bio-Rad), equilibrated with 20 mM HEPES, pH 7.5, 100 mM NaCl and 1 mM TCEP.
All MST measurements were performed on a Monolith NT.115 red-blue (Nanotemper, Munich, Germany) using premium-coated capillaries to reduce non-specific interaction of the proteins with the glass surface. Both interaction partners (ligand and receptor) were transferred into MST buffer (20 mM Tris-HCl pH 7.5, 200 mM sodium chloride, 1 mM TCEP and 0.05% Tween-20) to avoid artifacts derived from buffer mismatches. […] Data was analyzed using the MO Affinity Analysis Software (Nanotemper).

ARH = experiment: Peptide pulldown, ARH; assay type: binding; settings: desthiobiotin tail peptide on streptavidin beads, RAC-11P lysate, 4°C, 4 h; western blot; two repeats
Description: as §1, §2

Numb = experiment: Peptide pulldown, Numb; assay type: binding; settings: desthiobiotin tail peptide on streptavidin beads, RAC-11P lysate, 4°C, 4 h; western blot; two repeats
Description: as §1, §2

Numb-PTB (20-175) = biological target: T2, Numb-PTB (20-175) (Homo sapiens, UniProt P49757); experiment: Microscale thermophoresis (MST), Numb; assay type: binding; settings: concentration range tested up to 50 µM for β1
T2 construct: A pETNKI-6xhis-3C-Numb-PTB (20-175) construct was expressed in Rosetta2 (DE3) cells; 6xHis-3C (N, cleaved yes); made in house; host or cells: E. coli Rosetta2 (DE3)
T2 sequence (P49757 20-175): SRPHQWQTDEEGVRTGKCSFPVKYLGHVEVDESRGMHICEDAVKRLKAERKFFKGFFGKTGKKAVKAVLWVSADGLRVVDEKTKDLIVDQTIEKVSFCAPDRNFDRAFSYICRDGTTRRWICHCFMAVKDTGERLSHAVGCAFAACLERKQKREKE
Text: as §3
A pETNKI-6xhis-3C-Numb-PTB (20-175) construct was expressed in Rosetta2 (DE3) cells for 18 h at 20°C. Cells were lysed (25 mM Tris-HCl pH 8.0, 10 mM imidazole, 200 mM NaCl, 1 mM TCEP, 5 μg/ml DNase) and sonicated, after which insoluble proteins and cell debris were removed by centrifugation (21,000 g for 30 min at 4°C). Soluble lysate was applied to a nickel Sepharose column and beads were washed with wash buffer (lysis buffer without DNase) before protein was eluted in wash buffer supplemented with 250 mM imidazole. The 6xhis tag was cleaved off by his-3C protease during dialysis against 25 mM Tris-HCl pH 8.0, 100 mM NaCl, 1 mM TCEP, 16 h at 4°C. Elution fractions were pooled, diluted with six volumes of 20 mM HEPES pH 7.5, 1 mM TCEP and applied to a 1 ml Resource S cation-exchange column (Cytiva). Protein was eluted in a NaCl gradient (50–700 mM) in 25 mM HEPES (pH 7.5). 6xhis-Numb-PTB was concentrated and further purified by size-exclusion chromatography (SEC70 column, Bio-Rad) in 25 mM Tris-HCl pH 8.0, 200 mM NaCl and 1 mM TCEP.
All MST measurements were performed on a Monolith NT.115 red-blue (Nanotemper, Munich, Germany) using premium-coated capillaries to reduce non-specific interaction of the proteins with the glass surface. […] Data was analyzed using the MO Affinity Analysis Software (Nanotemper).

kindlin-1/2 = experiment: Peptide pulldown, kindlin-1/2; assay type: binding; settings: desthiobiotin tail peptide on streptavidin beads, RAC-11P lysate, 4°C, 4 h; western blot; two repeats
Description: as §1, §2

[1] = system: integrin β5 clustering in SW620, HT29 and SW480 cells; experiment: Inhibition of β5 clustering (confocal microscopy); assay type: cell-based, human; settings: cells fixed after 3 days of cilengitide treatment
Description: (§4) Fig. 6. Integrin β5 promotes colorectal cancer cell proliferation. […] Cells were fixed after 3 days of treatment and β5 (green in merge) and vinculin (magenta) were visualized using confocal microscopy. Cell nuclei are shown in blue. Scale bars: 20 μm. (B) Cells were seeded on day 0 and proliferation was measured from day 1–5 in cells with or without cilengitide (added at day 1). (C,E) FACS plots showing the expression of β5 in SW620 (C) and HT29 (E) wild-type (WT) and β5 knockout cells. Cells stained with a secondary PE-conjugated antibody only were used as negative control (n=2). (D,F) Proliferation of SW620 and HT29 wild-type and β5 knockout cells. (G) Representative IF images showing integrin β5 (green in merge), vinculin (red), actin (blue), nuclei (cyan) in SW620 wild-type, β5-deficient, and cilengitide-treated cells that were cultured for 5 days on coverslips prior to fixation. Scale bars: 100 μm. (H,I) Proliferation of SW620 (H) and HT29 (I) wild-type and β5 knockout cells on 3.2 μg ml^−1 collagen. Results shown represent mean±s.d. of three biological replicates, of which each experiment was performed in triplicate. *P<0.05 (two-sided unpaired Student's t-test).
(§5) PA-JEB/β4 keratinocytes were seeded on glass coverslips and cultured in complete KGM medium for 24 h, and then treated with DMEM plus 10% FCS for 24 h. […]

integrin αVβ3/αVβ5 = settings: stated as known, no reference given; cited from earlier work
Text: The integrin β5 plays a role in breast cancer and osteosarcoma cell proliferation ([Bianchi-Smiraglia et al., 2013]; [Lock et al., 2018]). Here, we analyzed the role of integrin β5 in cell proliferation of SW620, HT29 and SW480 colorectal cancer cells, in which β5 localizes predominantly in FCLs, FAs or is distributed equally in both adhesions, respectively. Because none of these cell lines express the integrin β3 subunit (Fig. S5A), we used the integrin αVβ3/αVβ5 antagonist cilengitide as a tool to inhibit αVβ5 function. The optimal concentration for inhibition was determined for each cell li ...

SW620 cells [2] = experiment: Proliferation assay (Crystal Violet), SW620; assay type: cell-based, human; settings: cilengitide added at day 1, measured day 1–5; concentration optimised per cell line, not given; three biological replicates
Description: as §4, with “Results shown represent mean±s.d. of three biological replicates, of which each experiment was performed in triplicate. *P<0.05 (two-sided unpaired Student's t-test).” left out
(§6) Cells were seeded at a density of 5×10^4 cells per well in a 96-well plate and treated with cilengitide or DMSO, as indicated in the figure legend. […] Cells were air-dried overnight and lysed in 2% SDS, after which the OD value of Crystal Violet at 490 nm was determined using an Epoch microplate reader equipped with Gen5 software. […]

SW620 cells [3] = experiment: Cell growth morphology (immunofluorescence), SW620; assay type: cell-based, human; settings: cilengitide-treated SW620 cells cultured for 5 days on coverslips; control cells mainly formed a 2D monolayer
Description: as §4, §5

SW480 cells = experiment: Proliferation assay (Crystal Violet), SW480; assay type: cell-based, human; settings: cilengitide added at day 1, measured day 1–5; concentration optimised per cell line, not given; three biological replicates
Description: as §4, with “Results shown represent mean±s.d. of three biological replicates, of which each experiment was performed in triplicate. *P<0.05 (two-sided unpaired Student's t-test).” left out
as §6

HT29 cells = experiment: Proliferation assay (Crystal Violet), HT29; assay type: cell-based, human; settings: cilengitide added at day 1, measured day 1–5; concentration optimised per cell line, not given; three biological replicates
Description: as §4, with “Results shown represent mean±s.d. of three biological replicates, of which each experiment was performed in triplicate. *P<0.05 (two-sided unpaired Student's t-test).” left out
as §6

| Substance | interaction with talin in pulldown (talin) | binding to kindlin by MST (kindlin-2) | interaction with KANK-2 in pulldown (KANK-2) | binding to ARH by MST (β1) (full-length human ARH) | interaction with ARH in pulldown (ARH) | interaction with Numb in pulldown (Numb) | binding to Numb by MST (β1) (Numb-PTB (20-175)) | interaction with kindlin-1/2 in pulldown (kindlin-1/2) | inhibition of β5 clustering [1] | integrin αVβ3/αVβ5 antagonism (integrin αVβ3/αVβ5) | proliferation, SW620 (SW620 cells [2]) | growth phenotype (SW620 cells [3]) | proliferation, SW480 (SW480 cells) | proliferation, HT29 (HT29 cells) |
| --- | --- | --- | --- | --- | --- | --- | --- | --- | --- | --- | --- | --- | --- | --- |
| HDRREFAKFEKEKMNAKWDTGENPIYKSAVTTVVNPKYEGK-OH [β1, synthetic integrin β1 cytoplasmic tail peptide] | interaction | much higher affinity than β3 and β5 | interaction | no binding; also recorded: unable to detect binding | not β1 and β3, bind to Numb and ARH | not β1 and β3, bind to Numb and ARH | no binding; also recorded: unable to detect binding | interaction | – | – | – | – | – | – |
| cilengitide (RGDFV; chains of the INN, looked up) [integrin αVβ3/αVβ5 antagonist] | – | – | – | – | – | – | – | – | Inhibition of β5 clustering | antagonist | significant decrease in proliferation | grew on top of each other | significant decrease in proliferation | significant decrease in proliferation |
